The results in this text go back to patent US4402964A, “N-Aryl-N'-(3-methyl or ethyl-4-oxothiazolidinylidene)ureas useful for the treatment of epilepsy” (McNeilab, Inc., priority 1981, dated 1983).

In the test the test system is tonic extensor seizure caused by applying an electric shock to mice via corneal electrodes. The test can be described thus: Maximal Electroshock (MES) test in mice (anticonvulsant activity). The test is classed as in vivo. The arrangement: key to Mice MES test results (IA): IA: inactive. The conditions noted are these: for ED50: Mus musculus, po, read-out: ED50, Mice MES test results dose (50% of the animals show a block of tonic extensor convulsions). From the text: Activity in the MES test, indicating anticonvulsant activity, is characterized by a block of the tonic extensor seizure caused by applying an electric shock to mice via corneal electrodes as described in Swinyard et al., J. Pharmacol. Exp. Ther., 106, 319-330 (1952) and recorded as % block. A more recent description of current practice in anticonvulsant drug screening has also been reported by Swinyard et al., Epilepsia, 19, 409-428 (1978).
In said table, the ED50 result means that 50% of the animals show a block of tonic extensor convulsions in the MES test.

The mark [1] stands for this setting: 10 mg/kg p.o., mice, only dose available.

Consider `Cc1cccc(NC(=O)N=C2SCC(=O)N2C)c1C` [VIII], for which, where the note is “mice, p.o.”, the ED50 is 128 mg/kg.
Turning to `O=C1CSC(=NC(=O)Nc2ccccc2)N1` [Example X-888, reference compound], the “Mice MES test results (activity in words)” value (200 mg/kg p.o.) is “not active”. In addition, the “Mice MES test results (IA)” value (200 mg/kg p.o., mice) was “IA”.
With `CCc1cccc(C)c1NC(=O)N=C1SCC(=O)N1C` [III], under setting [1], the “% block (MES test)” value is recorded as 10% and the “Mice MES test results (activity in words)” value was “Active”.
Turning to `Cc1cccc(C)c1NC(=O)N=C1NC(=O)CS1` [McN-4241, reference compound], the 50% effective dose (ED50) (mice, p.o.) worked out at 242 mg/kg. In addition, the “ED50 range, Mice MES test results” value (mice, p.o., range printed in parentheses with the ED50) fell in the range of 196.5 to 296.9 mg/kg.
Take `CN1C(=O)CSC1=NC(=O)Nc1c(Cl)cccc1Cl` [Example II, N-(2,6-dichlorophenyl)-N'-(3-methyl-4-oxo-2-thiazolidinylidene)urea]: the 50% effective dose (ED50) (mice, p.o.) stood at 28.3 mg/kg.
As for `COc1cccc(OC)c1NC(=O)N=C1SCC(=O)N1C` [IX], the ED50 (mice, p.o.) came out at 35.7 mg/kg.
Same read-out and setting: the result for `CCc1cccc(CC)c1NC(=O)N=C1SCC(=O)N1C` [V] reads 17.5 mg/kg.
With `Cc1cccc(Cl)c1NC(=O)N=C1SCC(=O)N1C` [IV, N-(2-chloro-6-methylphenyl)-N'-(3-methyl-4-oxo-2-thiazolidinylidene)urea], under “mice, p.o.”, the ED50 is 28.5 mg/kg.
Same read-out and setting: with `CN1C(=O)CSC1=NC(=O)Nc1c(Br)cccc1Br` [VII] the figure was 83.9 mg/kg; with `Cc1cccc(C)c1NC(=O)N=C1SCC(=O)N1C` [Example I, N-(2,6-dimethylphenyl)-N'-(3-methyl-4-oxo-2-thiazolidinylidene)urea], 9.96 mg/kg.
Regarding `CN1C(=O)CSC1=NC(=O)Nc1c(Br)cc(F)cc1Br` [VI], the “Mice MES test results (activity in words)” value (200 mg/kg p.o.) is given as “Active”. Moreover, for the setting “200 mg/kg p.o., mice”, the “% block (MES test)” value was determined as 60%.
In the case of `O=C1CSC(=NC(=O)Nc2c(Cl)cccc2Cl)N1` [McN-4242, reference compound], under “200 mg/kg p.o., mice”, the “Mice MES test results (IA)” value was “IA”.
As to `CN1C(=O)CSC1=NC(=O)Nc1c(F)cccc1F` [Example X], the ED50 (mice, p.o.) came to 52.2 mg/kg.
